From patent publication US20220204510A1, “2,3-DIHYDRO-1H-PYRROLIZINE-7-FORMAMIDE DERIVATIVE AND APPLICATION THEREOF” (CHIA TAI TIANQING PHARMACEUTICAL GROUP CO., LTD., priority 2018, published 2022) come the findings set out here.

Each structure is given as a SMILES string. A value given as a limit tells only on which side of the number the result lay.

The target in one assay is T1, CYP2C19 (Homo sapiens, UniProt P33261).
T1 construct: from tissue; host or cells: human liver microsomes
T1 sequence (P33261 whole entry): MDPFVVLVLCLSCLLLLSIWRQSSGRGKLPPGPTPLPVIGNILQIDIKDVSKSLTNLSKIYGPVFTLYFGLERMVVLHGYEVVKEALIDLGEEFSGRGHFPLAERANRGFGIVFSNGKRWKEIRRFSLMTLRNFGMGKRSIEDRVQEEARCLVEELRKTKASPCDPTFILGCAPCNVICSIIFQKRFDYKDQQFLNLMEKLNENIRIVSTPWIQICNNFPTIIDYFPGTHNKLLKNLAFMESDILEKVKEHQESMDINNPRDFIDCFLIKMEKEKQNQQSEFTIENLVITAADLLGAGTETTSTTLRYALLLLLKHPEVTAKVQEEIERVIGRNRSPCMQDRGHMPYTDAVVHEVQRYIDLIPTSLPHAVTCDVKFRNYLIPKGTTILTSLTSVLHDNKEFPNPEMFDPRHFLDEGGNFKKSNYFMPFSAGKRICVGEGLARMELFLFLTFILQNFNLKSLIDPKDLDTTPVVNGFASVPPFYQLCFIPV
As to the kind of experiment: Inhibition of human liver microsomal cytochrome P450 isoenzymes. The conditions noted are these: human liver microsomes. It counts as in vitro ADME. The procedure:
(§1) Experimental objective: to determine the inhibitory effect of the test compound on the activity of human liver microsomal cytochrome P450 isoenzymes (CYP1A2, CYP2C9, CYP2C19, CYP2D6 and CYP3A4). Experimental procedures: first, the test compound (10 mM) was diluted in gradient to prepare working solutions (100× final concentration) at concentrations of: 5, 1.5, 0.5, 0.15, 0.05, 0.015, and 0.005 mM, and working solutions of positive inhibitors for P450 isoenzymes (CYP1A2, CYP2C9, CYP2C19, CYP2D6, and CYP3A4) and the specific substrate mixtures thereof (5 in 1) were prepared simultaneously; human liver microsomes frozen in a−80° C. refrigerator were thawed on ice, and after all thawed, the human liver microsomes were diluted with PB to prepare a working solution at a specific concentration (0.253 mg/mL); 20 μL of the substrate mixture (20 μL of PB was added into the blank well) and 158 μL of the working solution of human liver microsomes were added into the reaction plate which was then placed on ice for use; then 2 μL of the test compound at each concentration (N=1) and a specific inhibitor (N=2) were added into the corresponding well, and the group without the inhibitor (test compound or the positive inhibitor) was added with a corresponding organic solvent as a control sample (the test compound control sample was 1:1 DMSO:MeOH; the positive control sample was 1:9 DMSO:MeOH); after pre-incubation under a 37° C. water bath for 10 min, 20 μL of a coenzyme factor (NADPH) solution was added into the reaction plate and incubated under a 37° C. water bath for 10 min, 400 μL of a cold acetonitrile solution (the internal standard was 200 ng/mL Tolbutamide and Labetalol) was added to terminate the reaction, and the reaction plate was placed on a shaker and shaken for 10 min; after centrifugation at 4,000 rpm for 20 min, 200 μL of the supernatant was collected and added to 100 μL of water to dilute the sample, and, finally, the plate was sealed, oscillated shaken evenly, and subjected to LC/MS/MS detection.
`CC1(NC(=O)C(=O)c2c(Cl)c(C(=O)Nc3ccc(F)c(F)c3)c3n2CCC3)CCOCC1` [Compound 2] yielded an IC50 greater than 50000 nM.

The target of another assay is T2, CYP2C9 (Homo sapiens, UniProt P11712).
T2 construct: from tissue; host or cells: human liver microsomes
T2 sequence (P11712 whole entry): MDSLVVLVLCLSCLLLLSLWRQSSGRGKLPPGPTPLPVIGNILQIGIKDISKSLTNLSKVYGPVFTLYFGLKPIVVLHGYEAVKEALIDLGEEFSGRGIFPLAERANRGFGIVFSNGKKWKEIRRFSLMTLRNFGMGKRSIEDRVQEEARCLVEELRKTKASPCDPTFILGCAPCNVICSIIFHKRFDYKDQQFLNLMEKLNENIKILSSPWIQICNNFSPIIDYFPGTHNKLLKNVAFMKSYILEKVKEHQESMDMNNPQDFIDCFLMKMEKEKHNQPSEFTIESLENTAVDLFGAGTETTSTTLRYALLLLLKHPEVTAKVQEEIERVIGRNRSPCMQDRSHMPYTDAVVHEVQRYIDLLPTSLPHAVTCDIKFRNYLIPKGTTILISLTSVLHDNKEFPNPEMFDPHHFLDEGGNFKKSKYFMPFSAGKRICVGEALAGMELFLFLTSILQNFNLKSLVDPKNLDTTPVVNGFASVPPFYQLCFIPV
Described as above. It counts as in vitro ADME. The conditions noted are these: human liver microsomes. The procedure:
as §1
`CC1(NC(=O)C(=O)c2c(Cl)c(C(=O)Nc3ccc(F)c(F)c3)c3n2CCC3)CCOCC1` [Compound 2]: the IC50 was greater than 50000 nM.

The target of another assay is T3, CYP3A4 (Homo sapiens, UniProt P08684).
T3 construct: from tissue; host or cells: human liver microsomes
T3 sequence (P08684 whole entry): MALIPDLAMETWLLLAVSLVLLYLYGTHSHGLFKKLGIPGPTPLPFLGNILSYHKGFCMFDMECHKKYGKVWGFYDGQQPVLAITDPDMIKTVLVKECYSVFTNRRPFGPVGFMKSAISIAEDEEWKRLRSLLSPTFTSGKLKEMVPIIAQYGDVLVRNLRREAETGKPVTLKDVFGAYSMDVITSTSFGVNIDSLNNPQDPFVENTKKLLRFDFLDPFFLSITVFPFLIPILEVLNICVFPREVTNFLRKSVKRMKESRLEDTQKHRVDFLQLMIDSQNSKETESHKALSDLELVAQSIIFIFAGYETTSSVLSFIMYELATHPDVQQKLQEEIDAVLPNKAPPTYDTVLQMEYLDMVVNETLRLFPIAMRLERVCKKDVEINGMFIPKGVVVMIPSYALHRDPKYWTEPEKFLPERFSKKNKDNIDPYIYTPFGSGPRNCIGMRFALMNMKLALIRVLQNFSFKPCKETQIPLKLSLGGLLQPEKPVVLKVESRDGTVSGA
Described as above. It counts as in vitro ADME. The conditions noted are these: human liver microsomes. The method, then:
as §1
In the case of `CC1(NC(=O)C(=O)c2c(Cl)c(C(=O)Nc3ccc(F)c(F)c3)c3n2CCC3)CCOCC1` [Compound 2], the IC50 was greater than 50000 nM.

In a further assay the target is T4, CYP1A2 (Homo sapiens, UniProt P05177).
T4 construct: from tissue; host or cells: human liver microsomes
T4 sequence (P05177 1-516): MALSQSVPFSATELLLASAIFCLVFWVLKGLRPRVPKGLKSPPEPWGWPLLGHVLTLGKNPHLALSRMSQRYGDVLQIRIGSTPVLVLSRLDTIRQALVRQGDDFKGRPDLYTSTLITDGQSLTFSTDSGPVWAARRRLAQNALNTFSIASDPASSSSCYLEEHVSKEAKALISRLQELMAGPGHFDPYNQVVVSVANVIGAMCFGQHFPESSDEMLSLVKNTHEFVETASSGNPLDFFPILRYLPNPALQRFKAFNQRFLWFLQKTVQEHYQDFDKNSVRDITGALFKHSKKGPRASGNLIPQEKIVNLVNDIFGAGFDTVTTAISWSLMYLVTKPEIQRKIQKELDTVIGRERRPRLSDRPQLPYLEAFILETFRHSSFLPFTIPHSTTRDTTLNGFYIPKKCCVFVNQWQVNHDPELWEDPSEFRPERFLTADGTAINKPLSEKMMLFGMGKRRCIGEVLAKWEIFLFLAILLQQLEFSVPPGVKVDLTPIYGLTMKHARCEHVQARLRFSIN
Described as above. The following applies: human liver microsomes. It is filed as in vitro ADME. The procedure:
as §1
In turn, `CC1(NC(=O)C(=O)c2c(Cl)c(C(=O)Nc3ccc(F)c(F)c3)c3n2CCC3)CCOCC1` [Compound 2] had an IC50 greater than 50000 nM.

The target of a further assay is T5, CYP2D6 (Homo sapiens, UniProt P10635).
T5 construct: from tissue; host or cells: human liver microsomes
T5 sequence (P10635 whole entry): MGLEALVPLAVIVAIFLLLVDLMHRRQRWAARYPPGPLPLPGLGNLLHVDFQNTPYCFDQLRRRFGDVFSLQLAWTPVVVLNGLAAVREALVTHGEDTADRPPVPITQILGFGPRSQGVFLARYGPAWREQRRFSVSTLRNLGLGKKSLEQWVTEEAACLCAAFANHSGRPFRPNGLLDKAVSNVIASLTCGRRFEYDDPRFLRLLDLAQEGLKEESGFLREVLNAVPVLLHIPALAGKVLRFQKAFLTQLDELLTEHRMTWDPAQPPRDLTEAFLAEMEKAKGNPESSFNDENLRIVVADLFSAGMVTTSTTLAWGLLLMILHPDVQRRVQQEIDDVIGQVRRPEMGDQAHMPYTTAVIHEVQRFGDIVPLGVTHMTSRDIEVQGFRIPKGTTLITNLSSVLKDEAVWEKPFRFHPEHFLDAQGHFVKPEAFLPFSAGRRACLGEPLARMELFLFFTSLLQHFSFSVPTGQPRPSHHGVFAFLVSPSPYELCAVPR
Described as above. The conditions noted are these: human liver microsomes. It counts as in vitro ADME. The method, then:
as §1
For `CC1(NC(=O)C(=O)c2c(Cl)c(C(=O)Nc3ccc(F)c(F)c3)c3n2CCC3)CCOCC1` [Compound 2], the IC50 is greater than 50000 nM.

For a further assay, the system named is HBV. As to the kind of experiment: qPCR test in the HBV in vitro test (HBV DNA in HepG2.2.15 cells). It counts as cell-based. The following applies: Hepatitis B virus, 192 h, HBV DNA in HepG2.2.15 culture medium, day 8, read-out: Half maximal inhibitory concentration (EC50) of HBV. The method, then: To evaluate the inhibitory effect of the compound on HBV by detecting content of HBV DNA in HepG2.2.15 cells in a real-time qPCR test, with EC50 of the compound as an indicator.
3.1. HepG2.2.15 cells (4×10^4 cells/well) were inoculated into a 96-well plate and cultured at 37° C. in 5% CO2 overnight. 3.2. On day 2, the compound was 3-fold diluted in gradient for a total of 8 dilution gradients. The compound at different concentrations was added into the culture wells in duplicate. The final concentration of DMSO in the culture medium was 1%. 1 μM GLS4 was used as a 100% inhibition control (the structure of GLS4 disclosed in WO2008154817A1 is as follows:
1% DMSO was used as a 0% inhibition control. 3.3. On day 5, the culture medium was replaced with a fresh culture medium containing the compound. 3.4. On day 8, the culture medium in the culture wells was collected, and the high-throughput DNA purification kit (Qiagen-51162) was used to extract DNA. For specific steps, refer to the product manual.
3.6. Each well of the 96-well PCR plate was added with 15 μL of the reaction mixture, and then with 10 μL of sample DNA or HBV DNA standard. 3.7. The reaction conditions for PCR: heating at 95° C. for 10 min, degeneration at 95° C. for 15 s, and extension at 60° C. for 1 min, with a total of 40 cycles.
3.8.1. Calculation of the inhibition percentage: % Inh.=[1−(DNA copy number in the sample−DNA copy number in 1 μM GLS4)/(DNA copy number in the DMSO control−DNA copy number in 1 μM GLS4)]×100. 3.8.2. Calculation of EC50: half maximal inhibitory concentration (EC50) of the compound for HBV was calculated using GraphPad Prism software. 3.8.3.
With `CC1(NC(=O)C(=O)c2c(Cl)c(C(=O)Nc3ccc(F)c(C#N)c3)c3n2CCC3)CCOCC1` [Compound 5], the EC50 came out at 7 nM.

Regarding `CC1(NC(=O)C(=O)c2cc(C(=O)Nc3ccc(F)c(F)c3)c3n2CCCC3)CCOCC1` [Compound 6], the EC50 was determined as 110 nM.

With `CC1(NC(=O)C(=O)c2c(Cl)c(C(=O)Nc3ccnc(Cl)c3)c3n2CCC3)CCOCC1` [Compound 7], the EC50 turned out to be 30 nM.

With `C[C@]1(NC(=O)C(=O)c2c(Cl)c(C(=O)Nc3ccc(F)c(F)c3)c3n2CCC3)CC[C@@H](CCC(=O)O)CC1` [Compound 21], the EC50 was determined as 3 nM.

Turning to `CC1(NC(=O)C(=O)c2c(Br)c(C(=O)Nc3ccc(F)c(F)c3)c3n2CCC3)CCOCC1` [Compound 8], the EC50 was 9 nM.

As to `C[C@]1(NC(=O)C(=O)c2c(Cl)c(C(=O)Nc3ccc(F)c(F)c3)c3n2CCC3)CC[C@H](C(=O)O)CC1` [Compound 19], the EC50 turned out to be 20 nM.

For `CC1(NC(=O)C(=O)c2c(Cl)c(C(=O)Nc3ccc(F)c(F)c3)c3n2CCC3)CCC(CC(=O)O)CC1` (stereo not shown) [Compound 13], the EC50 came to 19 nM.

For `C[C@]1(NC(=O)C(=O)c2c(Cl)c(C(=O)Nc3ccc(F)c(F)c3)c3n2CCC3)CC[C@@H](C(=O)O)CC1` [Compound 20], the EC50 was 11 nM.

With `COC(=O)C[C@H]1CC[C@](C)(NC(=O)C(=O)c2c(Cl)c(C(=O)Nc3cc(F)c(F)c(F)c3)c3n2CCC3)CC1` [Compound 31], the EC50 stood at 5 nM.

Regarding `Cc1c(C(=O)Nc2ccc(F)c(F)c2)c2n(c1C(=O)C(=O)NC1(C)CCOCC1)CCC2` [Compound 3], the EC50 came out at 5 nM.

For the molecule `O=C(O)C[C@H]1CC[C@@](NC(=O)C(=O)c2c(Cl)c(C(=O)Nc3cc(F)c(F)c(F)c3)c3n2CCC3)(C(F)(F)F)CC1` [Compound 30], the EC50 is 1 nM.

As to `O=C(O)C[C@H]1CC[C@](NC(=O)C(=O)c2c(Cl)c(C(=O)Nc3cc(F)c(F)c(F)c3)c3n2CCC3)(C(F)(F)F)CC1` [Compound 29], the EC50 was 3 nM.

`O=C(O)CC1CCC(NC(=O)C(=O)c2c(Cl)c(C(=O)Nc3cc(F)c(F)c(F)c3)c3n2CCC3)(C(F)(F)F)CC1` (stereo not shown) [Compound 28]: the EC50 worked out at 2 nM.

As for `N#CC1(NC(=O)C(=O)c2c(Cl)c(C(=O)Nc3ccc(F)c(F)c3)c3n2CCC3)CCC(CC(=O)O)CC1` (stereo not shown) [Compound 24], the EC50 worked out at 299 nM.

`N#CC1(NC(=O)C(=O)c2c(Cl)c(C(=O)Nc3ccc(F)c(F)c3)c3n2CCC3)CCOCC1` [Compound 12]: the EC50 was 5 nM.

Regarding `CC1(NC(=O)C(=O)c2c(Cl)c(C(=O)Nc3cc(F)c(F)c(F)c3)c3n2CCC3)CCOCC1` [Compound 10], the EC50 is 2 nM.

For the molecule `CC1(NC(=O)C(=O)c2c(Cl)c(C(=O)Nc3ccc(F)c(F)c3)c3n2CCC3)CCN(CC(=O)O)CC1` [Compound 4], the EC50 amounted to 580 nM.

On to `CC1(NC(=O)C(=O)c2c(Cl)c(C(=O)Nc3ccc(F)c(F)c3)c3n2CCC3)CCOCC1` [Compound 2], for which the EC50 was found to be 3 nM.

For the molecule `CC(C)(C)OC(=O)C[C@H]1CC[C@](C)(NC(=O)C(=O)c2c(Cl)c(C(=O)Nc3cc(F)c(F)c(F)c3)c3n2CCC3)CC1` [Compound 25-3], the EC50 came out at 4 nM.

For the molecule `CC1(NC(=O)C(=O)c2c(C(F)(F)F)c(C(=O)Nc3ccc(F)c(F)c3)c3n2CCC3)CCOCC1` [Compound 9], the EC50 came to 41 nM.

Turning to `CC(C)(CCC(=O)O)NC(=O)C(=O)c1c(Cl)c(C(=O)Nc2ccc(F)c(F)c2)c2n1CCC2` [Compound 16], the EC50 came to 41 nM.

Regarding `N#CC1(NC(=O)C(=O)c2c(Cl)c(C(=O)Nc3cc(F)c(F)c(F)c3)c3n2CCC3)CCC(CC(=O)O)CC1` (stereo not shown) [Compound 26], the EC50 stood at 174 nM.

`C[C@@H](NC(=O)C(=O)c1c(Cl)c(C(=O)Nc2ccnc(Cl)c2)c2n1CCC2)C(F)(F)F` [Compound 14]: the EC50 came to 70 nM.

Consider `COCC1(NC(=O)C(=O)c2c(Cl)c(C(=O)Nc3ccc(F)c(F)c3)c3n2CCC3)CCOCC1` [Compound 11], for which the EC50 was determined as 4 nM.

For `O=C(NC12CCC(C(=O)O)(CC1)CC2)C(=O)c1c(Cl)c(C(=O)Nc2ccc(F)c(F)c2)c2n1CCC2` [Compound 15], the EC50 turned out to be 37 nM.

Take `CC1(NC(=O)C(=O)c2cc(C(=O)Nc3ccc(F)c(F)c3)c3n2CCC3)CCOCC1` [Compound 1]: the EC50 is 35 nM.

For `CC(C)(CCCCC(=O)O)NC(=O)C(=O)c1c(Cl)c(C(=O)Nc2cc(F)c(F)c(F)c2)c2n1CCC2` [Compound 27], the EC50 turned out to be 12 nM.

On to `C[C@]1(NC(=O)C(=O)c2c(Cl)c(C(=O)Nc3ccc(F)c(F)c3)c3n2CCC3)CC[C@H](CCC(=O)O)CC1` [Compound 22], for which the EC50 was 14 nM.

With `CC(C)(CCCC(=O)O)NC(=O)C(=O)c1c(Cl)c(C(=O)Nc2ccc(F)c(F)c2)c2n1CCC2` [Compound 23], the EC50 was 27 nM.
